Measurements: patent publication US10087178B2, “Substituted spiropyrido[1,2-a]pyrazine derivative and medicinal use thereof as HIV integrase inhibitor” (priority 2012, dated 2018)
Structures can show the parent of a compound that is named as a salt. Where two headings read alike, the source gives them in different places.

System: HIV-1 NL4-3 strain
Experiment: Evaluation of antiviral activity: acute infection system of MT-4 cell with HIV-1 NL4-3 strain
Type: cell-based
[1] = Human immunodeficiency virus 1, NL43, MT4, 120 h, MT-4 cells infected with HIV-1 NL4-3 strain (MOI 0.05), cultured 5 days, Cell Titer-Glo, read-out: antiviral activity (EC50)
[2] = Human immunodeficiency virus 1, NL43, MT4, 120 h, antiviral activity, MT-4 cells infected with HIV-1 NL4-3 (MOI 0.05), 5 days culture, Cell Titer-Glo luminescence
[3] = Human immunodeficiency virus 1, NL43, MT4, 120 h, read-out: antiviral activity (EC50), MT-4 cells infected with HIV-1 NL4-3 strain (MOI 0.05), cultured 5 days, Cell Titer-Glo
[4] = Human immunodeficiency virus 1, NL43, MT4, 120 h, antiviral activity, MT-4 cells infected with HIV-1 NL4-3 (MOI 0.05), 5 days culture, Cell Titer-Glo luminescence, read-out: EC50
[5] = MT-4 cells infected with HIV-1 NL4-3 strain (MOI 0.05), cultured 5 days, Cell Titer-Glo, read-out: antiviral activity (EC50)

Compound	EC50 [1] [nM]	other results
COC[C@H]1C[C@@]2(CN(C)C(=O)c3c(O)c(=O)c(C(=O)NCc4cccc(Cl)c4F)cn32)C1 [Example 27, N-(3-chloro-2-fluorobenzyl)-9′-hydroxy-trans-3-(methoxymethyl)-2′-methyl-1′,8′-dioxo-1′,2′,3′,8′-tetrahydrospiro[cyclobutane-1,4′-pyrido[1,2-a]pyrazine]-7′-carboxamide]	1.5	–
CCC(=O)Oc1c2n(cc(C(=O)NCc3cccc(Cl)c3F)c1=O)[C@]1(CN(C)C2=O)C[C@H](COC)C1 [Example S67, 7′-(3-chloro-2-fluorobenzylcarbamoyl)-cis-3-(methoxymethyl)-2′-methyl-1′,8′-dioxo-1′,2′,3′,8′-tetrahydrospiro[cyclobutane-1,4′-pyrido[1,2-a]pyrazin]-9′-yl propionate]	0.9	–
CC(C)O[C@H]1C[C@]2(CN(C(C)C)C(=O)c3c(O)c(=O)c(C(=O)NCc4ccc(F)cc4F)cn32)C1 [Example S33, N-(2,4-difluorobenzyl)-9′-hydroxy-cis-3-isopropoxy-2′-isopropyl-1′,8′-dioxo-1′,2′,3′,8′-tetrahydrospiro[cyclobutane-1,4′-pyrido[1,2-a]pyrazine]-7′-carboxamide hydrochloride]	6.4	–
CO[C@H]1C[C@@]2(CN(C)C(=O)c3c(O)c(=O)c(C(=O)NCc4cccc(Cl)c4F)cn32)C1 [Example 2, N-(3-chloro-2-fluorobenzyl)-9′-hydroxy-trans-3-methoxy-2′-methyl-1′,8′-dioxo-1′,2′,3′,8′-tetrahydrospiro[cyclobutane-1,4′-pyrido[1,2-a]pyrazine]-7′-carboxamide hydrochloride]	–	EC50 [2]: 4.2 nM
COc1ccc(CNC(=O)c2cn3c(c(O)c2=O)C(=O)N(C)C[C@]32C[C@@H](CO)C2)c(F)c1Cl [Example S49]	65	–
CC(C)N1C[C@]2(C[C@H](C(=O)N(C)C)C2)n2cc(C(=O)NCc3ccc(F)cc3F)c(=O)c(O)c2C1=O [Example S31, N^7′-(2,4-difluorobenzyl)-9′-hydroxy-2′-isopropyl-N^3-N^3-dimethyl-1′,8′-dioxo-1′,2′,3′,8′-tetrahydrospiro[cyclobutane-1,4′-pyrido[1,2-a]pyrazine]- cis-3,7′-dicarboxamide hydrochloride]	24	–
COC[C@H]1C[C@]2(CN(C)C(=O)c3c(OC(C)=O)c(=O)c(C(=O)NCc4cccc(Cl)c4F)cn32)C1 [Example 37, 7′-(3-chloro-2-fluorobenzylcarbamoyl)-cis-3-(methoxymethyl)-2′-methyl-1′,8′-dioxo-1′,2′,3′,8′-tetrahydrospiro[cyclobutane-1,4′-pyrido[1,2-a]pyrazin]-9′-yl acetate]	0.7	–
CC(C)N1C[C@]2(C[C@H]2CS(C)(=O)=O)n2cc(C(=O)NCc3cccc(Cl)c3F)c(=O)c(O)c2C1=O [Example 21, (1R,2R)—N-(3-chloro-2-fluorobenzyl)-9′-hydroxy-2′-isopropyl-2-(methylsulfonylmethyl)-1′,8′-dioxo-1′,2′,3′,8′-tetrahydrospiro[cyclopropane-1,4′-pyrido[1,2-a]pyrazine]-7′-carboxamide hydrochloride]	–	EC50 [2]: 48 nM
CO[C@H]1C[C@]2(Cn3cc(C(=O)NCc4ccc(F)cc4F)c(=O)c(O)c3C(=O)N2C(C)C)C1 [Example S53, N-(2,4-difluorobenzyl)-9′-hydroxy-2′-isopropyl-cis-3-methoxy-1′,8′-dioxo-1′,2′,4′,8′-tetrahydrospiro[cyclobutane-1,3′-pyrido[1,2-a]pyrazine]-7′-carboxamide hydrochloride]	10	–
COC[C@H]1C[C@]2(CN(C)C(=O)c3c(OC(=O)c4cccc(C(=O)O)c4)c(=O)c(C(=O)NCc4cccc(Cl)c4F)cn32)C1 [Example 40, Monosodium 3-{[7′-(3-chloro-2-fluorobenzylcarbamoyl)-cis-3-(methoxymethyl)-2‘-methyl-’,8′-dioxo-1′,2′,3′,8′-tetrahydrospiro[cyclobutane-1,4′-pyrido[1,2-a]pyrazin]-9′-yloxy]carbonyl}benzoate]	1	–
CCOC[C@H]1C[C@@]12CN(C)C(=O)c1c(O)c(=O)c(C(=O)NCc3ccc(OC)c(Cl)c3F)cn12 [Example T31, (1S,2S)-N-(3-chloro-2-fluoro-4-methoxybenzyl)-2-(ethoxymethyl)-9′-hydroxy-2′-methyl-1′,8′-dioxo-1′,2′,3′,8′-tetrahydrospiro[cyclopropane-1,4′-pyrido[1,2-a]pyrazine]-7′-carboxamide]	12	–
CN1C[C@@]2(C[C@@H]2CO)n2cc(C(=O)NCc3ccc(F)cc3F)c(=O)c(O)c2C1=O [Example T4, (1S,2S)-N-(2,4-difluorobenzyl)-9′-hydroxy-2-(hydroxymethyl)-2′-methyl-1′,8′-dioxo-1′,2′,3′,8′-tetrahydrospiro[cyclopropane-1,4′-pyrido[1,2-a]pyrazine]-7′-carboxamide hydrochloride]	–	EC50 [3]: 30 nM
CCN1C[C@]2(C[C@H](O)C2)n2cc(C(=O)NCc3ccc(F)cc3F)c(=O)c(O)c2C1=O [Example S18, N-(2,4-difluorobenzyl)-2′-ethyl-cis-3,9′-dihydroxy-1′,8′-dioxo-1′,2′,3′,8′-tetrahydrospiro[cyclobutane-1,4′-pyrido[1,2-a]pyrazine]-7′-carboxamide hydrobromide]	–	EC50 [4]: 16 nM
CCN1C[C@@]2(C[C@@H]2C(=O)N(C)C)n2cc(C(=O)NCc3ccc(F)cc3F)c(=O)c(O)c2C1=O [Example 19, (1S,2S)—N^7′-(2,4-difluorobenzyl)-2′-ethyl-9′-hydroxy-N^2,N^2-dimethyl-1′,8′-dioxo-1′,2′,3′,8′-tetrahydrospiro[cyclopropane-1,4′-pyrido[1,2-a]pyrazine]-2,7′-dicarboxamide hydrochloride]	–	EC50 [4]: 4.2 nM
CN1C[C@@]2(C[C@@H]2CO)n2cc(C(=O)NCc3cccc(Cl)c3F)c(=O)c(O)c2C1=O [Example T15, (1S,2S)-N-(3-chloro-2-fluorobenzyl)-9′-hydroxy-2-(hydroxymethyl)-2′-methyl-1′,8′-dioxo-1′,2′,3′,8′-tetrahydrospiro[cyclopropane-1,4′-pyrido[1,2-a]pyrazine]-7′-carboxamide hydrochloride]	–	EC50 [3]: 20 nM
CN1C[C@]2(C[C@@H](CO)C2)n2cc(C(=O)NCc3cccc(Cl)c3F)c(=O)c(O)c2C1=O [Example S36, N-(3-chloro-2-fluorobenzyl)-9′-hydroxy-trans-3-(hydroxymethyl)-2′-methyl-1′,8′-dioxo-1′,2′,3′,8′-tetrahydrospiro[cyclobutane-1,4′-pyrido[1,2-a]pyrazine]-7′-carboxamide]	15	–
CCO[C@H]1C[C@]2(CN(C)C(=O)c3c(O)c(=O)c(C(=O)NCc4cccc(Cl)c4F)cn32)C1 [Example S29, N-(3-chloro-2-fluorobenzyl)- cis-3-ethoxy-9′-hydroxy-2′-methyl-1′,8′-dioxo-1′,2′,3′,8′-tetrahydrospiro[cyclobutane-1,4′-pyrido[1,2-a]pyrazine]-7′-carboxamide hydrochloride]	4.3	–
CCN1C[C@]2(C[C@@H](OCc3ccccc3)C2)n2cc(C(=O)NCc3ccc(F)cc3F)c(=O)c(O)c2C1=O [Example S15, trans-3-(benzyloxy)-N-(2,4-difluorobenzyl)-2′-ethyl-9′-hydroxy-1′,8′-dioxo-1′,2′,3′,8′-tetrahydrospiro[cyclobutane-1,4′-pyrido[1,2-a]pyrazine]-7′-carboxamide hydrochloride]	–	EC50 [4]: 6.9 nM
COC[C@H]1C[C@]2(CN(C)C(=O)c3c(OC(=O)c4ccccc4)c(=O)c(C(=O)NCc4cccc(Cl)c4F)cn32)C1 [Example S70, 7′-(3-chloro-2-fluorobenzylcarbamoyl)-cis-3-(methoxymethyl)-2′-methyl-1′,8′-dioxo-1′,2′,3′,8′-tetrahydrospiro[cyclobutane-1,4′-pyrido[1,2-a]pyrazin]-9′-yl benzoate]	1.4	–
COC[C@@H]1C[C@]12CN(C(C)C)C(=O)c1c(O)c(=O)c(C(=O)NCc3ccc(F)cc3F)cn12 [Example 12, (1R,2R)—N-(2,4-difluorobenzyl)-9′-hydroxy-2′-isopropyl-2-(methoxymethyl)-1′,8′-dioxo-1′,2′,3′,8′-tetrahydrospiro[cyclopropane-1,4′-pyrido[1,2-a]pyrazine]-7′-carboxamide hydrochloride]	–	EC50 [2]: 5 nM
COC[C@H]1C[C@]2(CN(C)C(=O)c3c(OC(=O)C(C)C)c(=O)c(C(=O)NCc4cccc(Cl)c4F)cn32)C1 [Example S68, 7′-(3-chloro-2-fluorobenzylcarbamoyl)-cis-3-(methoxymethyl)-2′-methyl-1′,8′-dioxo-1′,2′,3′,8′-tetrahydrospiro[cyclobutane-1,4′-pyrido[1,2-a]pyrazin]-9′-yl isobutyrate]	0.7	–
COC[C@H]1C[C@]2(CN(C)C(=O)c3c(O)c(=O)c(C(=O)NCc4cccc(Cl)c4F)cn32)C1 [Example 32, N-(3-chloro-2-fluorobenzyl)-9′-hydroxy-cis-3-(methoxymethyl)-2′-methyl-1′,8′-dioxo-1′,2′,3′,8′-tetrahydrospiro[cyclobutane-1,4′-pyrido[1,2-a]pyrazine]-7′-carboxamide monosulfate]	–	EC50 [5]: 0.9 nM
CCN1C[C@@]2(C[C@@H]2COC)n2cc(C(=O)NCc3cccc(C(F)(F)F)c3F)c(=O)c(O)c2C1=O [Example T27, (1S,2S)-2′-ethyl-N-(2-fluoro-3-(trifluoromethyl)benzyl)-9′-hydroxy-2-(methoxymethyl)-1′,8′-dioxo-1′,2′,3′,8′-tetrahydrospiro[cyclopropane-1,4′-pyrido[1,2-a]pyrazine]-7′-carboxamide]	–	EC50 [5]: 97 nM
